US20060217440A1, “Porcess for production of 2-cyano-3-hydroxy-n-(4-trifluoromethylphenyl)hept-2-en-6-ynamide and process for production of polymorphs thereof” (priority 2003, published 2006)

Assay: Stability of the crystal forms based on DSC endothermic test
Assay type: physicochemical
Conditions: analysis based on measurement results of a DSC endothermic test; rank order among polymorphs of compound (I)
Text: FIGS. 1, 4 and 7 show the IR (KBr) spectrum, DSC endothermic curve and X-ray diffraction pattern of the crystals, respectively.
FIGS. 2, 5 and 8 show the IR (KBr) spectrum, DSC endothermic curve and X-ray diffraction pattern of the crystals, respectively.
FIGS. 3, 6 and 9 show the […]

C#CCC/C(O)=C(\C#N)C(=O)Nc1ccc(C(F)(F)F)cc1 [B-form crystals, 2-cyano-3-hydroxy-N-(4-trifluoromethylphenyl) hept-2-en-6-ynamide]
stability order of the crystal forms: B-form crystals>C-form crystals>A-form crystals
